The values that follow come from patent US20250082781A1, “METHODS OF LOWERING BLOOD GLUCOSE AND TREATING TYPE 2 DIABETES BY ACTIVATION OF PDE4D3” (Salk Institute for Biological Studies, priority 2021, published 2025).

The test system of data set [1] is blood glucose levels. Description: Blood glucose levels in DIO mice. The class given is in vivo, mouse. The settings on record: for blood glucose levels: 0.5 mg/kg FGF1 s.c. The protocol:
(§1) Mice were kept in 12 h light/dark cycle in a temperature-controlled environment. Mice had free access to food and water unless noted otherwise. C57/B6 mice background was used unless noted otherwise. C57BL/6J and ob/ob (000632-B6. Cg-Lepob/J) male mice were obtained from Jackson Laboratory. PDE4D knock-out mice (034588-UCD) were obtained from MMRRC. For diet-induced obesity (DIO) studies, mice were fed a high fat diet (HFD) (60% fat, F3282; Bio-Serv) for minimum of 12 weeks to induce insulin resistance when diet-induced obese model is used. Insulin levels and blood glucose levels were monitored to confirm insulin resistance. To generate adipose-specific FGFR1 deletion, adiponectin-cre mice (B6; FVB-Tg (Adipoq-cre)1Evdr/J; Stock: 010803) were crossed to Fgfr1 flox/flox (B6.129S4-Fgfr1tm5.1Sor/J; Stock: 00767) mice. For AAV mediated expression of target proteins in adipose tissue, 5×10E+11 genomic copies of AAV were injected via tail vein or retro-orbital route.
(§2) Recombinant FGF1 (rFGF1) was dissolved in phosphate-buffered saline (PBS) at a concentration of 0.2 mg/ml and was injected subcutaneously at a 0.5 mg kg^−1 dose. Blood glucose was monitored at indicated time points after injection. For initial measurements (2-4 h) food was removed after injection to exclude any indirect effects stemming from anorexigenic effects of FGF1. PDE4 inhibitor roflumilast stock in DMSO was diluted at 1 mg/ml in 30% captisol, pH 10 and delivered to mice thorough oral gavage at 5 mg kg^−1 dose. PDE3 inhibitor cilostamide stock in DMSO was diluted at 2 mg/ml in 30% captisol and delivered through intraperitoneal injection at 10 mg kg^−1 dose.

The next data set concerns oleic acid turnover. The experiment in a line: 3H-labeled oleic acid turnover (in vivo lipolysis). Also on record: species or system mouse. How it is done:
FIGS. 1A-1I: FGF1 suppresses adipose lipolysis. (FIG. 1A) Ex-vivo lipolysis in gonadal white adipose tissue (gWAT) explants from wildtype (F1WT) and FGF1 KO (FIKO) mice 6 h after refeeding. Data are represented as mean±SEM (n=4, *p<0.05). (FIG. 1B) Lipolysis in mouse SVF-derived adipocytes measured by the cumulative release of free fatty acids (FFAs) into the media over 4 h. Cells were pretreated with vehicle (PBS) or FGF1 (100 ng/ml) for 10 min prior to the induction of lipolysis with 1 nM isoproterenol (ISO). Data are represented as mean±SEM (n=3, *p<0.05, **p<0.01). (FIG. 1C) Dose response of FGF1-induced suppression of lipolysis in 3T3-L1 adipocytes. Cells were pretreated with the indicated doses of FGF1 for 10 min prior to the induction of lipolysis with 100 nM isoproterenol (ISO), and the cumulative release of FFAs over 4 h was measured. Data are represented as mean±SEM (n=3, **p<0.01, ***p<0.001). […] Plasma radioactivity was measured by scintillation counting and normalized to t=1 min. Fractional oleic acid turnover rate was calculated by linear regression of natural log transformed data (adR1WT vehicle n=5, FGF1 n=4; adR1KO vehicle n=4, FGF1 n=5). […] Quantification of pHSL-S660 normalized to total HSL is shown in the right panel. […] Quantification of pHSL-S660 normalized to total HSL (right panel). […]

Data set [2] relates to blood glucose levels. Description: Blood glucose levels in ob/ob mice. The data set is classed as in vivo, mouse. How it is done:
as §1, §2

In the case of “FGF1: Recombinant fibroblast growth factor 1 protein, dissolved in PBS, injected subcutaneously”, the blood glucose levels result is “failed to affect adR1KO mice” in the data set with blood glucose levels [1] (DIO adR1KO mice) and “rapidly decreased blood glucose levels” with blood glucose levels [1] (DIO wild type mice (adR1WT)). Moreover, in the data set on blood glucose levels [1] (DIO mice, FGF1 0.5 mg/kg, cilostamide 10 mg/kg), the “ability of FGF1 to modulate glucose levels under inhibition of PDE3” value is “failed to affect the ability of FGF1 to modulate glucose levels”. Further, the blood glucose entry in the data set with blood glucose levels [1] (HFD-fed PDE4D KO mice, FGF1 0.5 mg/kg) is given as “failed to lower blood glucose”; in the data set with blood glucose levels [2] (ad lib fed ob/ob mice, FGF1 0.5 mg/kg s.c. as single agent), “robustly lowered blood glucose”. In the data set with blood glucose levels [1] (PDE4D KO DIO mice 4 weeks after adAAV, FGF1 0.5 mg/kg), the “FGF1 blood glucose lowering with adAAV-driven expression of PDE4D3 in adipose tissue” value is reported as “restored”. Besides, the “ability of FGF1 to reduce blood glucose levels with roflumilast pretreatment” value in the data set on blood glucose levels [1] (ad lib fed DIO mice, FGF1 0.5 mg/kg, roflumilast 5 mg/kg) is given as “lost”. Moreover, the oleic acid turnover entry with oleic acid turnover (adR1KO mice, FGF1 pretreatment) is “not affected”. Moreover, the “fractional turnover rate of oleic acid” value with oleic acid turnover (adR1WT mice, FGF1 0.5 mg/kg s.c. 6 h before infusion) was “reduced”. In addition, the “blood glucose, FGF1 co-administered with atglistatin” value in the data set with blood glucose levels [2] (ad lib fed ob/ob mice, FGF1 0.5 mg/kg + atglistatin 120 mg/kg) is given as “no additive effects”. The “FGF1-induced reduction in glucose levels in mice overexpressing PDE4D3” value in the data set with blood glucose levels [2] (ob/ob mice with adAAV-PDE4D3, FGF1 0.5 mg/kg) is “greater reduction in glucose levels”. For the same substance, the “FGF1 glucose response in mice expressing the S44A mutant” value with blood glucose levels [2] (ob/ob mice with adAAV-PDE4D3 S44A, FGF1 0.5 mg/kg) is listed as “indistinguishable from control mice”.
